Patent US20140088066A1, “PLATINUM COMPOUNDS, COMPOSITIONS AND METHODS FOR THE TREATMENT OF CANCER” (Blend Therapeutics, priority 2012, published 2014)
Read-outs that look alike come from different tables or passages of the source.

How the values were obtained:
[1] = physchem
Procedure: Nanoparticle formulation of compound of Formula XVI. […] (cold) or at 20-25° C. (warm) and stored refrigerated or frozen with 10% sucrose.

[2] = physchem; remark: listed apart in the source
[3] = Aqueous solubility

aqueous solubility [3] [µg/mL]	Compound	saturated solubility in ethyl acetate (EA) [1]	solubility ([1]; organic solvent or mixture) [µg/mL]	solubility [2] [µg/mL]
–	CCCCCCCCCCCCCCCCCC(=O)[O][Pt]([NH2])([NH2])[n+]1cc2ccccc2c2ccccc21 [Compound 27, phenantriplatin (stearate) nitrate]	low	1500	< 100
5000	phenanthriplatin [phenantriplatin]	–	–	–
